From paper PMC6496959 (Journal of medicinal chemistry, 2018)

Experiments:
[1] = system: A/Guangzhou/GIRD/07/2009 (H1N1); experiment: microbe, parasite or virus in culture; format: cell-based; settings: Influenza A virus, H1N1, MDCK, 48 h, read-out: Activity (EC50, μM)
MDCK cells = settings: minimal change in cell morphology after 48 h incubation
[2] = system: influenza virus (A/PR/8/34)

Compound	EC50 [1] [µM]	MCC (minimum cytotoxic concentration) (MDCK cells) [µM]	inhibition of virus-induced aggregation of chicken erythrocytes [2]
C[C@H]1[C@H](NCc2sccc2Br)C[C@H]2C[C@@H]1C2(C)C [Compound 13]	> 0.78	50	
C[C@H]1[C@H](NCc2cncnc2)C[C@H]2C[C@@H]1C2(C)C [Compound 1]	> 50	>100	
C[C@H]1[C@H](NCc2cncs2)C[C@H]2C[C@@H]1C2(C)C [Compound 9]	> 50	>100	
CCCCc1ccsc1CN[C@@H]1C[C@H]2C[C@@H]([C@H]1C)C2(C)C [Compound 15]		25	
NC12CC3CC(CC(C3)C1)C2 [Amantadine, amantadine, reference compound]		>100	
C[C@H]1[C@H](NCc2cc(-c3ccsc3)cs2)C[C@H]2C[C@@H]1C2(C)C [Compound 33]	> 0.78	25	
CCc1csc(CN[C@@H]2C[C@H]3C[C@@H]([C@H]2C)C3(C)C)c1 [Compound 25]	> 0.78	25	
Cc1csc(CN[C@@H]2C[C@H]3C[C@@H]([C@H]2C)C3(C)C)n1 [Compound 10]		>100	
CCc1ccsc1CN[C@@H]1C[C@H]2C[C@@H]([C@H]1C)C2(C)C [Compound 12]	> 0.78	25	
C[C@H]1[C@H](NCc2cccs2)C[C@H]2C[C@@H]1C2(C)C [Compound 7]		25	
C[C@H]1[C@H](NCc2ccc(Cl)s2)C[C@H]2C[C@@H]1C2(C)C [Compound 35]	> 0.78	25	
C[C@H]1[C@H](NCc2cc(C3CCCCC3)cs2)C[C@H]2C[C@@H]1C2(C)C [Compound 32]	> 0.78	0.78	
C[C@H]1[C@H](NCc2ccco2)C[C@H]2C[C@@H]1C2(C)C [Compound 5]	> 50	50	
CCCc1ccsc1CN[C@@H]1C[C@H]2C[C@@H]([C@H]1C)C2(C)C [Compound 14]	> 0.78	50	
C[C@H]1[C@H](NCc2ccc(Br)s2)C[C@H]2C[C@@H]1C2(C)C [Compound 37]	> 0.78	43	
C=Cc1ccsc1CN[C@@H]1C[C@H]2C[C@@H]([C@H]1C)C2(C)C [Compound 17]		50	
C[C@H]1[C@H](NCc2cc(C3CC3)cs2)C[C@H]2C[C@@H]1C2(C)C [Compound 30]		25	
Cc1csc(CN[C@@H]2C[C@H]3C[C@@H]([C@H]2C)C3(C)C)c1 [Compound 24]		12.5	
C[C@H]1[C@H](NCc2sccc2-c2ccsc2)C[C@H]2C[C@@H]1C2(C)C [Compound 21]	> 0.78	12.5	
CCCCc1csc(CN[C@@H]2C[C@H]3C[C@@H]([C@H]2C)C3(C)C)c1 [Compound 27]		12.5	
C[C@H]1[C@H](NCc2sccc2C2CC2)C[C@H]2C[C@@H]1C2(C)C [Compound 18]			did not inhibit

Compound	EC50 [1] [µM]	MCC (minimum cytotoxic concentration) (MDCK cells) [µM]	inhibition of virus-induced aggregation of chicken erythrocytes [2]
C[C@H]1[C@H](NCc2ccsc2)C[C@H]2C[C@@H]1C2(C)C [Compound 6]		50	
C=C(C)c1csc(CN[C@@H]2C[C@H]3C[C@@H]([C@H]2C)C3(C)C)c1 [Compound 29]	> 0.78	25	
C[C@H]1[C@H](NCc2ccoc2)C[C@H]2C[C@@H]1C2(C)C [Compound 4]		>100	
C[C@H]1[C@H](NCc2sccc2-c2ccccc2)C[C@H]2C[C@@H]1C2(C)C [Compound 22]	> 0.78	12.5	
C[C@H]1[C@H](NCc2cc(Br)cs2)C[C@H]2C[C@@H]1C2(C)C [Compound 23]		6.25	
C[C@H]1[C@H](NCc2sccc2C2CCCC2)C[C@H]2C[C@@H]1C2(C)C [Compound 19]		12.5	
C[C@H]1[C@H](NCc2sccc2C2CCCCC2)C[C@H]2C[C@@H]1C2(C)C [Compound 20]	> 0.78	1.56	
C[C@H]1[C@H](NCc2ccc(-c3ccc(Br)s3)s2)C[C@H]2C[C@@H]1C2(C)C [Compound 41]	> 0.78	0.78	
CSc1ccc(CN[C@@H]2C[C@H]3C[C@@H]([C@H]2C)C3(C)C)s1 [Compound 40]	> 0.78	25	
C[C@H]1[C@H](NCc2cc(-c3ccccc3)cs2)C[C@H]2C[C@@H]1C2(C)C [Compound 34]	> 0.78	5	
C=Cc1csc(CN[C@@H]2C[C@H]3C[C@@H]([C@H]2C)C3(C)C)c1 [Compound 28]	> 0.78	6.25	
CCOc1ccsc1CN[C@@H]1C[C@H]2C[C@@H]([C@H]1C)C2(C)C [Compound 16]	> 0.78	50	
Cc1ccc(CN[C@@H]2C[C@H]3C[C@@H]([C@H]2C)C3(C)C)s1 [Compound 36]	> 0.78	0.78	
C[C@H]1[C@H](NCc2ccc(C(C)(C)C)s2)C[C@H]2C[C@@H]1C2(C)C [Compound 39]	> 0.78	0.78	
CCc1ccc(CN[C@@H]2C[C@H]3C[C@@H]([C@H]2C)C3(C)C)s1 [Compound 38]	> 0.78	1.56	
Cc1n[nH]cc1CN[C@@H]1C[C@H]2C[C@@H]([C@H]1C)C2(C)C [Compound 3]	> 50	>100	
C[C@H]1[C@H](NCc2cnccn2)C[C@H]2C[C@@H]1C2(C)C [Compound 2]	> 50	>100	
C[C@H]1[C@H](NCc2nccs2)C[C@H]2C[C@@H]1C2(C)C [Compound 8]	> 50	>100	
Cc1ccsc1CN[C@@H]1C[C@H]2C[C@@H]([C@H]1C)C2(C)C [Compound 11]	> 0.78	10	
C[C@H]1[C@H](NCc2cc(C3CCCC3)cs2)C[C@H]2C[C@@H]1C2(C)C [Compound 31]	> 0.78	1.56	
CCCc1csc(CN[C@@H]2C[C@H]3C[C@@H]([C@H]2C)C3(C)C)c1 [Compound 26]	> 0.78	12.5	
